Measurements: PubChem BioAssay AID248 (DTP/NCI, 2004)
Inconclusive results and toxic doses are left out. No stated cut-off is given here; in the data, active means T/C of 150% or more; inactive means T/C below 125%.

Tested on: L1210 leukemia ip in BDF1 mice, survival T/C
Assay: NCI In Vivo Anticancer Drug Screen. Data for tumor model L1210 Leukemia (intraperitoneal) in B6D2F1 (BDF1) mice
Conditions: endpoint: mean survival time, higher = longer survival
Method in brief: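 Tumor cells were implanted, animals were treated, and survival was followed. The result divides the treated measurement by the vehicle-control measurement.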

[1] = dose: 100.0 mg/kg/injection, schedule: Q01DX009 (ip), vehicle: saline
[2] = dose: 100.0 mg/kg/injection, schedule: Q04DX003 (ip), vehicle: saline
[3] = dose: 200.0 mg/kg/injection, schedule: Q01DX009 (ip), vehicle: saline
[4] = dose: 200.0 mg/kg/injection, schedule: Q04DX003 (ip), vehicle: saline
[5] = dose: 400.0 mg/kg/injection, schedule: Q04DX003 (ip), vehicle: saline
[6] = dose: 100.0 mg/kg/injection, schedule: Q01DX009 (ip), vehicle: Klucel (hydroxypropylcellulose) (HPC)
[7] = dose: 100.0 mg/kg/injection, schedule: Q04DX003 (ip), vehicle: Klucel (hydroxypropylcellulose) (HPC)
[8] = dose: 200.0 mg/kg/injection, schedule: Q01DX009 (ip), vehicle: Klucel (hydroxypropylcellulose) (HPC)
[9] = dose: 200.0 mg/kg/injection, schedule: Q04DX003 (ip), vehicle: Klucel (hydroxypropylcellulose) (HPC)
[10] = dose: 400.0 mg/kg/injection, schedule: Q01DX009 (ip), vehicle: Klucel (hydroxypropylcellulose) (HPC)
[11] = dose: 400.0 mg/kg/injection, schedule: Q04DX003 (ip), vehicle: Klucel (hydroxypropylcellulose) (HPC)

Measured: T/C

Nc1ccn(CC(=O)N2CCOCC2)c(=O)n1
inactive: dose: 25.0 mg/kg/injection, schedule: Q01DX009 (ip), vehicle: water 93 % of control | dose: 50.0 mg/kg/injection, schedule: Q01DX009 (ip), vehicle: water 87 % of control | dose: 100.0 mg/kg/injection, schedule: Q01DX009 (ip), vehicle: water 87 % of control | dose: 200.0 mg/kg/injection, schedule: Q01DX009 (ip), vehicle: water 93 % of control | dose: 400.0 mg/kg/injection, schedule: Q01DX009 (ip), vehicle: water 88 % of control

C(=N\Nc1ccccc1)/c1cc2c3c(c1)CCCN3CCC2
inactive: dose: 100.0 mg/kg/injection, schedule: Q01DX009 (ip), vehicle: gum acacia 94 % of control | dose: 200.0 mg/kg/injection, schedule: Q01DX009 (ip), vehicle: gum acacia 91 % of control | dose: 400.0 mg/kg/injection, schedule: Q01DX009 (ip), vehicle: gum acacia 94 % of control

CCN(CC)c1ccc(C(=S)c2ccc(N(CC)CC)cc2)cc1
inactive: dose: 100.0 mg/kg/injection, schedule: Q01DX001 (ip), vehicle: other 91 % of control | dose: 200.0 mg/kg/injection, schedule: Q01DX001 (ip), vehicle: other 91 % of control | dose: 400.0 mg/kg/injection, schedule: Q01DX001 (ip), vehicle: other 95 % of control

CC(=O)OC1CCCC2C(=O)c3c(c(O)c4ccccc4c3O)C(=O)C12 (configuration not stated)
inactive: [1] 98 % of control | [2] 96 % of control | [3] 98 % of control | [4] 96 % of control | dose: 400.0 mg/kg/injection, schedule: Q01DX009 (ip), vehicle: saline 101 % of control | [5] 93 % of control

Cc1cc(C)c(S(=O)(=O)O)cc1C
inactive: dose: 50.0 mg/kg/injection, schedule: Q01DX009 (ip), vehicle: saline 92 % of control | [1] 92 % of control | [2] 98 % of control | [3] 88 % of control

OC1CN(C2CCCCC2)C1
inactive: [2] 98 % of control

CCCC/C=C/CCl
inactive: dose: 100.0 mg/kg/injection, schedule: Q01DX001 (ip), vehicle: saline 88 % of control | [2] 102 % of control | dose: 200.0 mg/kg/injection, schedule: Q01DX001 (ip), vehicle: saline 91 % of control | [4] 95 % of control | dose: 400.0 mg/kg/injection, schedule: Q01DX001 (ip), vehicle: saline 90 % of control | [5] 98 % of control

COc1cc(NS(C)(=O)=O)ccc1NS(C)(=O)=O
inactive: [6] 112 % of control | [7] 108 % of control | [8] 108 % of control | [9] 94 % of control | [10] 103 % of control | [11] 100 % of control

COc1ccc(NC(=O)Oc2ccc(Cl)cc2C)c(OC)c1
inactive: [6] 104 % of control | [8] 108 % of control | [10] 108 % of control

CCOC(=O)c1ccc(NCC(C)(C)N)cc1
inactive: [2] 97 % of control

CCCC1OC(=O)C(C)O1 (configuration not stated)
inactive: [6] 94 % of control | [7] 105 % of control | [8] 97 % of control | [9] 100 % of control | [11] 103 % of control

CC1=NOC(=O)C12CC2
inactive: dose: 75.0 mg/kg/injection, schedule: Q01DX001 (ip), vehicle: saline 100 % of control | dose: 150.0 mg/kg/injection, schedule: Q01DX001 (ip), vehicle: saline 100 % of control | dose: 300.0 mg/kg/injection, schedule: Q01DX001 (ip), vehicle: saline 103 % of control

CCCCNC(=O)C1CCCC(C(=O)NCCCC)C1 (configuration not stated)
inactive: dose: 75.0 mg/kg/injection, schedule: Q01DX009 (ip), vehicle: saline 96 % of control | dose: 150.0 mg/kg/injection, schedule: Q01DX009 (ip), vehicle: saline 102 % of control | dose: 300.0 mg/kg/injection, schedule: Q01DX009 (ip), vehicle: saline 87 % of control

Cc1cc(C(=O)O)c(C)cc1SSc1cc(C)c(C(=O)O)cc1C
inactive: dose: 75.0 mg/kg/injection, schedule: Q01DX001 (ip), vehicle: carboxymethylcellulose (CMC) 94 % of control | dose: 150.0 mg/kg/injection, schedule: Q01DX001 (ip), vehicle: carboxymethylcellulose (CMC) 94 % of control | dose: 300.0 mg/kg/injection, schedule: Q01DX001 (ip), vehicle: carboxymethylcellulose (CMC) 88 % of control
